From PMC3816702, “The Three Catecholics Benserazide, Catechol and Pyrogallol are GPR35 Agonists” (Pharmaceuticals, 2013)

Experiments:
[1] = biological target: T1, GPR35 (Homo sapiens, UniProt Q9HC97); experiment: Tango β-arrestin translocation gene reporter assay in U2OS-GPR35-bla cells; assay type: cell-based; set-up: host or cells: U2OS (Tango U2OS-GPR35-bla); conditions: for Potency EC50, Tango / EC50: β-arrestin translocation, tested up to 1mM, mean ± S.D.; for Potency EC50, Tango: n = 4; for Efficacy Tango (%zaprinast): normalized to maximal response of zaprinast (100%); for EC50: n = 4, read-out: Potency EC50, Tango
Procedure: (§1) Tango assays were performed in engineered U2OS-GPR35-bla cell line. This cell line permits an endpoint measurement of the activity of agonists specific to the GPR35 activation-induced β-arrestin translocation. Specifically, 10000 U2OS-GPR35-bla cells per well were seeded in 384-well, black-wall, clear bottom assay plates with low fluorescence background (Corning). After overnight culture, the cells were stimulated with ligands for 5 h at 37 °C under 5% CO2, and then loaded with the cell permeable LiveBLAzer™ fluorescence resonance energy transfer (FRET) B/G substrate. After 2 h incubation the coumarin to fluorescein ratio was measured using Victor 4 plate reader (PerkinElmer, Waltham, MA, USA).
Target sequence in this assay (Q9HC97 whole entry, species assumed): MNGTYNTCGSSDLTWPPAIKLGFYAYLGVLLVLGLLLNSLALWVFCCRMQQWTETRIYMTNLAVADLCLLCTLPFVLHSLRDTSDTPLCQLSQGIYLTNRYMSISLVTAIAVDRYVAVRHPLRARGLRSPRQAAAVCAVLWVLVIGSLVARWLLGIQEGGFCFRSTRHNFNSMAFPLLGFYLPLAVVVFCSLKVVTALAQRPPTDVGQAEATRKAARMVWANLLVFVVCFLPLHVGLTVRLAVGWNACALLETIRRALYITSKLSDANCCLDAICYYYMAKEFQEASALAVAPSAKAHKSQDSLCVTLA

[2] = biological target: T1, GPR35; experiment: DMR agonist assay in native HT-29 cells; assay type: cell-based; set-up: label-free DMR assays in both native HT-29 and engineered U2OS-GPR35-bla cells; host or cells: HT-29; conditions: for Potency EC50, DMR / EC50: mean ± S.D.; for Potency EC50, DMR: n = 4; for Efficacy DMR: maximal DMR amplitude; for EC50: n = 4, read-out: Potency EC50, DMR
Procedure: (§2) DMR assays were performed using an Epic® system (Corning Inc., Corning, NY, USA). This system records a ligand-induced dynamic mass redistribution (DMR) signal of live cells as a shift in resonant wavelength (in picometer, pm) of a resonant waveguide grating biosensor. The DMR signal obtained is a real-time kinetic response that provides a holistic view of ligand-receptor interaction(s) and its functional consequence in the cells. For HT-29 cells 30,000 cells per well were seeded into 384well Epic® biosensor plates (Corning) and cultured overnight. For U2OS and U2OS-GPR35-bla cells 18,000 cells per well were seeded and cultured overnight. These cells were then washed twice using a plate washer, maintained with Hank’s balanced salt solution (1 × HBSS) and further incubated inside the Epic® system for 1 h. DMR agonist profiling proceeds with a 2-min baseline, followed by compound addition and monitoring the compound-induced responses for about 1 h. […] All DMR signals were background corrected.
Target sequence in this assay (Q9HC97 whole entry): as the sequence (Q9HC97 whole entry, species assumed) above

[3] = biological target: T1, GPR35; experiment: DMR antagonist assay in HT-29 cells (preincubation with antagonist, then agonist at fixed dose); assay type: cell-based; set-up: label-free DMR assays in both native HT-29 and engineered U2OS-GPR35-bla cells; host or cells: HT-29; conditions: 500 μM catechol; for Blockage of the agonist-induced DMR by ML-145: label = agonist at fixed dose: 64 μM propyl gallate, 200 or 100 μM syringic acid, 16 μM benserazide, 20 μM (+)-taxifolin, 100 μM fenoldopam; for Effect of antagonist on the catechol DMR: label = antagonist
Procedure: as §2
Target sequence in this assay (Q9HC97 whole entry): as the sequence (Q9HC97 whole entry, species assumed) above

[4] = system: parental U2OS cells; experiment: DMR agonist assay in parental U2OS cells; assay type: cell-based; conditions: parental U2OS cells without GPR35
Procedure: as §2

[5] = biological target: T1, GPR35; experiment: ML-145 inhibition of Tango signals of agonists at a fixed dose in U2OS-GPR35-bla cells; assay type: cell-based; set-up: host or cells: U2OS (Tango U2OS-GPR35-bla); conditions: label = agonist at fixed dose: 10 μM zaprinast, 10 μM YE210, 50 μM gallic acid, 10 μM pyrogallol, 32 μM benserazide, 250 μM 3-methoxycatechol
Procedure: as §1
Target sequence in this assay (Q9HC97 whole entry, species assumed): as above

[6] = biological target: T1, GPR35; experiment: DMR agonist assay in engineered U2OS-GPR35-bla cells; assay type: cell-based; set-up: host or cells: U2OS (Tango U2OS-GPR35-bla); conditions: DMR amplitude at 8min poststimulation; n = 4
Procedure: as §2
Target sequence in this assay (Q9HC97 whole entry, species assumed): as above

[7] = biological target: T1, GPR35; conditions: previously found; cited from earlier work
Target sequence in this assay (Q9HC97 whole entry): as the sequence (Q9HC97 whole entry, species assumed) above

| SMILES | Potency EC50, Tango [1] | Efficacy Tango (%zaprinast) [1] [%zaprinast] | Efficacy DMR [2] [pm] | EC50 [2] [µM] | Blockage of the agonist-induced DMR by ML-145 [3] | Blockage of the agonist Tango signal by ML-145 [5] | other results |
| --- | --- | --- | --- | --- | --- | --- | --- |
| Oc1cc(O)c2c(c1)O[C@@H](c1ccc(O)c(O)c1)[C@H](O)C2 [(−)-Catechin, (−)-catechin] | inactive |  |  |  |  |  | Potency EC50, DMR [2]: inactive |
| O=C1c2c(O)cc(O)cc2O[C@H](c2ccc(O)c(O)c2)[C@H]1O [(+)-Taxifolin, (+)-taxifolin] | weak | >8 | 170 | 6.6 ± 0.5 | completely blocked |  |  |
| COc1cc(C(=O)O)cc(OC)c1O [Syringic acid, syringic acid] | weak | >10 | 151 | 147 ± 23 | completely blocked |  |  |
| CCCOc1ccccc1-c1nc2nn[nH]c2c(=O)[nH]1 [zaprinast, Zaprinast] |  |  |  |  |  | dose-dependently blocked | DMR activity in the parental U2OS cells [4]: inactive |
| Oc1ccc(C2CNCCc3c2cc(O)c(O)c3Cl)cc1 (stereo not drawn) [Fenoldopam, fenoldopam, reference compound] | inactive | 0 | 268 | 206 ± 19 | completely blocked |  |  |
| Oc1ccccc1O [Catechol, catechol] | inactive | 0 | 207 | 319 ± 27 | completely blocked |  |  |
| Oc1cccc(O)c1O [Pyrogallol, pyrogallol] |  | 113 ± 5 | 210 | 1.3 ± 0.1 |  | dose-dependently blocked | EC50 [1]: 4.5 ± 0.4 µM |
| Cc1c(C(=O)O)sc2c(Br)csc12 [YE210] |  |  |  |  |  | dose-dependently blocked |  |
| O=C(O)c1cc(O)c(O)c(O)c1 [Gallic acid, gallic acid, reference compound] |  | 77 ± 5 |  | 1.16 ± 0.09 |  | dose-dependently blocked | EC50 [1]: 12.6 ± 1 µM |
| CCCOC(=O)c1cc(O)c(O)c(O)c1 [Propyl gallate, propyl gallate] | weak | >8 | 210 | 20.2 ± 1.9 | completely blocked |  |  |
| NC(CO)C(=O)NNCc1ccc(O)c(O)c1O (stereo not drawn) [Benserazide] |  | 48 ± 4 | 296 | 11 ± 0.9 | partially blocked | dose-dependently blocked | DMR activity in the parental U2OS cells [4]: inactive; EC50 [6]: 1 ± 0.13 µM; EC50 [1]: 7.5 ± 0.6 µM |
| COC(=O)[C@@H]1[C@H]2C[C@H]3c4[nH]c5ccccc5c4CCN3C[C@@H]2CC[C@@H]1O [yohimbine, reference compound] |  |  |  |  |  |  | Effect of antagonist on the catechol DMR [3]: neither the β-adrenergic receptor antagonist betaxolol nor α2-adrenergic receptor antagonist yohimbine had any obvious effects |
| COc1cccc(O)c1O [3-Methoxycatechol, 3-methoxycatechol] |  | 41 ± 3 | 219 | 147 ± 15 |  | dose-dependently blocked | EC50 [1]: 80.7 ± 6.3 µM |
| COc1ccc(C=CC(=O)O)cc1OC [3,4-Dimethoxycinnamic acid, 3,4-dimethoxycinnamic acid] | inactive |  |  |  |  |  | Potency EC50, DMR [2]: inactive |
| O=C(O)/C=C/c1ccc(O)c(O)c1 [caffeic acid] |  |  |  |  |  |  | GPR35 agonist activity (DMR in HT-29), in words [7]: weak partial agonist |
| CC(C)NCC(O)COc1ccc(CCOCC2CC2)cc1 (stereo not drawn) [betaxolol, reference compound] |  |  |  |  |  |  | Effect of antagonist on the catechol DMR [3]: neither the β-adrenergic receptor antagonist betaxolol nor α2-adrenergic receptor antagonist yohimbine had any obvious effects |
